The source of these data is patent US20250313563A1, “GLYCOGEN SYNTHASE KINASE 3 INHIBITORS AND USES THEREOF” (The Broad Institute, Inc., priority 2022, published 2025).

The target in experiment [1] is GSK3b (GST-full length GSK3b) (Homo sapiens (Human), UniProt P49841). Briefly: GSK3b TR-FRET kinase assay. In kind it is biochemical. The procedure, abridged:
(§1)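 Compound was preincubated 30 min with 1 nM GST-GSK3 enzyme. Reaction ran 100 min at ambient temperature in Tris pH 7.5/MgCl2 with 200 nM biotinylated pS645-glycogen synthase 631-650 peptide and ATP (4 μM GSK3α, 2 μM GSK3b, or 1 mM). The EDTA-stopped reaction was read by TR-FRET (Tb-anti-pSer641/streptavidin-d2), and IC50s were fitted.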

The target in experiment [2] is GSK3α (GST-full length GSK3α) (Homo sapiens (Human), UniProt P49840). Put plainly: GSK3α TR-FRET kinase assay. It is filed as biochemical. In outline:
as §1

The mark [3] stands for this setting: 1 nM GSK3b, 2 μM ATP, 30 minute preincubation, Table 16, read-out: GSK3-B TR-FRET BIOCHEMICAL (TR-FRET), IC50.
[4] abbreviates: 1 nM GSK3α, 4 μM ATP, 30 minute preincubation, Table 16, read-out: GSK3-A TR-FRET BIOCHEMICAL (TR-FRET), IC50.
Where [5] appears, read: 1 nM GSK3b, 2 μM ATP, 30 minute preincubation, geometric mean, read-out: GSK3-B TR-FRET BIOCHEMICAL (TR-FRET), GMean, IC50.
Where [6] appears, read: 1 nM GSK3α, 4 μM ATP, 30 minute preincubation, geometric mean, read-out: GSK3-A TR-FRET BIOCHEMICAL (TR-FRET), GMean, IC50.
[7] abbreviates: 1 nM GSK3b, 2 μM ATP, 30 minute preincubation, read-out: GSK3-B TR-FRET BIOCHEMICAL (TR-FRET), IC50.
[8] abbreviates: 1 nM GSK3α, 4 μM ATP, 30 minute preincubation, read-out: GSK3-A TR-FRET BIOCHEMICAL (TR-FRET), IC50.
The mark [9] stands for this setting: 1 nM GSK3b, 2 μM ATP, 30 minute preincubation, Table 16, read-out: GSK3-B TR-FRET BIOCHEMICAL (TR-FRET).
The mark [10] stands for this setting: read-out: GSK3-B (TR-FRET 1 mM ATP), GMean, IC50, 1 mM ATP, geometric mean.
The mark [11] stands for this setting: 1 nM GSK3α, 4 μM ATP, 30 minute preincubation, Table 16, read-out: GSK3-A TR-FRET BIOCHEMICAL (TR-FRET).
The mark [12] stands for this setting: read-out: GSK3-A (TR-FRET 1 mM ATP), GMean, IC50, 1 mM ATP, geometric mean.
[13] abbreviates: GSK3-B (TR-FRET 1 mM ATP), GMean, IC50, 1 mM ATP, geometric mean.
Where [14] appears, read: GSK3-A (TR-FRET 1 mM ATP), GMean, IC50, 1 mM ATP, geometric mean.

Molecules are shown by their SMILES. pIC50: −log10 of the molar value. Where two headings read alike, the source gives them in different places.

GSK3α (GST-full length GSK3α), sequence (P49840 whole entry): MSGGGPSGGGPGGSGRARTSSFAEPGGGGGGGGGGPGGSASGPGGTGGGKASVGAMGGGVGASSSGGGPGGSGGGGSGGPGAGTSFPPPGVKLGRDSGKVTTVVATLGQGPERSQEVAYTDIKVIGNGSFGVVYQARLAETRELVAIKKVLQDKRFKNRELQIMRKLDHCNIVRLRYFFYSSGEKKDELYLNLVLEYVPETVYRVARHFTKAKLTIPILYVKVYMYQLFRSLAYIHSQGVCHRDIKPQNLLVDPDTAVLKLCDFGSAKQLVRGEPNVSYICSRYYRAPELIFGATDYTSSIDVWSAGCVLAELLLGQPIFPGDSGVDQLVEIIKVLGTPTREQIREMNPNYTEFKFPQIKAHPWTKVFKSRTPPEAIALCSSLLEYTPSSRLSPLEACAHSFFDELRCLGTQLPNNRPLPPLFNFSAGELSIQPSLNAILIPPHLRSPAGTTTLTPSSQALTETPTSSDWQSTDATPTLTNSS
GSK3b (GST-full length GSK3b), sequence (P49841 whole entry): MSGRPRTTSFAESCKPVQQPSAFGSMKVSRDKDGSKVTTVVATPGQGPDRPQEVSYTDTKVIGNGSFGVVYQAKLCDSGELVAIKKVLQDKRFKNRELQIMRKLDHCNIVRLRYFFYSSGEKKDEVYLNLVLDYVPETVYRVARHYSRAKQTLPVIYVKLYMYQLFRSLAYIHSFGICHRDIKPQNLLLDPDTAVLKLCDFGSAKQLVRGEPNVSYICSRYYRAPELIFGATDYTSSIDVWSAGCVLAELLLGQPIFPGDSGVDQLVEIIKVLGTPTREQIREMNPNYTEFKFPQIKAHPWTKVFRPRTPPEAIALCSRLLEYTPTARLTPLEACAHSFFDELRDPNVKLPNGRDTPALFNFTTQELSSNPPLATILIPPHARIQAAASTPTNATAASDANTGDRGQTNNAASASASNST

Take `CCC1(c2cccc(-c3ccnc4c3CCCC4)c2)C2=C(CC(C)(C)C2=O)Nc2n[nH]cc21` (stereo not shown) [Compound 952752]: the pIC50 in experiment [1] (setting [3]) is 6.00 to 7.00; in experiment [2] (setting [4]) it was not below 7.00.
On to `CC1(C)CC(=O)C2=C(C1)Nc1n[nH]cc1C2(C)c1cccc(-c2ccccc2)c1` (stereo not shown) [Compound 789513], for which the pIC50 in experiment [1] (setting [5]) and in experiment [2] (setting [6]) was 6.00 to 7.00 throughout.
For `CCn1cc(N2CCC3=C(C2=O)[C@](CC)(c2cccc(C(F)(F)F)c2)c2c[nH]nc2N3)cn1` [Compound 949868], the figures for the pIC50 in experiment [1] (setting [3]) and in experiment [2] (setting [4]) were less than 5.30 and 6.00 to 7.00, respectively.
Take `Cc1ccc(C(=O)N2CC3(C2)CC2(CO3)C3=C(CC(C)(C)CC3=O)Nc3n[nH]cc32)cc1C` (stereo not shown) [Compound 947286]: the pIC50 in experiment [1] (setting [7]) and in experiment [2] (setting [8]) was not below 7.00 in each case.
In the case of `CC[C@@]1(c2cccc(-c3ccnn3C)c2)C2=C(C[C@@](C)(COC)NC2=O)Nc2n[nH]cc21` [Compound 947908], the pIC50 in experiment [1] (setting [5]) is less than 5.30; in experiment [2] (setting [6]) it was 5.30 to 6.00.
With `CCC1(c2cccc(-c3ccncc3F)c2)C2=C(CC(C)(C)CC2=O)Nc2n[nH]cc21` (stereo not shown) [Compound 943518], the pIC50 is not below 7.00 in experiment [1] (setting [9]), 6.00 to 7.00 in experiment [1] (setting [10]), not below 7.00 in experiment [2] (setting [11]) and not below 7.00 in experiment [2] (setting [12]).
In the case of `CCC1(c2cccc(-c3cc(C(C)C)nn3C)c2)C2=C(CC(C)(C)NC2=O)Nc2n[nH]cc21` (stereo not shown) [Compound 951842], the pIC50 is 5.30 to 6.00 in experiment [1] (setting [3]) and 6.00 to 7.00 in experiment [2] (setting [4]).
As to `CC[C@]1(c2cccc(N3CCCC3)c2)C2=C(CC(C)(C)CC2=O)Nc2n[nH]c(C)c21` [Compound 883875], the pIC50 in experiment [1] (setting [3]) is 5.30 to 6.00; in experiment [2] (setting [4]) it was 6.00 to 7.00.
Take `CCC1(c2cccc(S(C)(=O)=O)c2)C2=C(CC(C)(C)CC2=O)Nc2n[nH]cc21` (stereo not shown) [Compound 826718]: the pIC50 in experiment [1] (setting [10]) was 6.00 to 7.00; in experiment [2] (setting [12]) it was not below 7.00.
On to `CCC1(c2cccc(-c3ccnn3C(C)C)c2)C2=C(CC(C)(C)CC2=O)Nc2n[nH]cc21` (stereo not shown) [Compound 946092], for which the pIC50 was less than 5.30 in experiment [1] (setting [9]) and 5.30 to 6.00 in experiment [2] (setting [11]).
As for `CCC1(c2cccc(-n3ccnc3)c2)C2=C(CC(C)(C)CC2=O)Nc2n[nH]cc21` (stereo not shown) [Compound 854926], the pIC50 in experiment [1] (setting [5]) is 6.00 to 7.00; in experiment [2] (setting [6]) it was not below 7.00.
For `CC[C@]1(c2ccccc2)C2=C(Nc3n[nH]cc31)[C@@H](C)C[C@H](C)C2=O` [Compound 865198] the same measures were 5.30 to 6.00 and 6.00 to 7.00.
As to `CC1(C)CC(=O)C2=C(C1)Nc1n[nH]cc1[C@@]21CCOC2(CCC2)C1` [Compound 897755], the pIC50 in experiment [1] (setting [7]) and in experiment [2] (setting [8]) was 5.30 to 6.00 throughout.
Regarding `CCC1(c2cccc(-c3ccnn3C)c2)C2=C(CC(C)(C)NC2=O)Nc2n[nH]cc21` (stereo not shown) [Compound 914971], the pIC50 in experiment [1] (setting [7]) was 6.00 to 7.00; in experiment [2] (setting [8]) it was not below 7.00.
In the case of `CCC1(c2cccc(-c3cnn(CC#N)c3)c2)C2=C(CC(C)(C)NC2=O)Nc2n[nH]cc21` (stereo not shown) [Compound 952210], the pIC50 in experiment [1] (setting [3]) was 6.00 to 7.00; in experiment [2] (setting [4]), not below 7.00.
Turning to `CC[C@@]1(c2cccc(-c3cncn3C)c2)C2=C(CC(C)(C)CC2=O)Nc2n[nH]c(C)c21` [Compound 913032], the pIC50 in experiment [1] (setting [3]), in experiment [1] (setting [10]), in experiment [2] (setting [4]) and in experiment [2] (setting [12]) was not below 7.00 each time.
As for `Cc1cc(-c2cccc3c2CCC[C@]32C3=C(CC(C)(C)CC3=O)Nc3n[nH]cc32)ccn1` [Compound 945549], the pIC50 in experiment [1] (setting [9]) and in experiment [2] (setting [11]) was not below 7.00 throughout.
As to `CCC1(c2cccc(-n3ccnc3)c2)C2=C(CC(C)(C)CC2=O)Nc2n[nH]cc21` (stereo not shown) [Compound 874531], the pIC50 in experiment [1] (setting [5]) and in experiment [2] (setting [6]) was not below 7.00 throughout.
As for `CCC1(c2ccccc2)C2=C(CC3(CCC3)CC2=O)Nc2n[nH]cc21` (stereo not shown) [Compound 811555], the pIC50 in experiment [1] (setting [5]) and in experiment [2] (setting [6]) was 6.00 to 7.00 in each case.
For `CC[C@@]1(c2cccc(Oc3ncccn3)c2)C2=C(CC(C)(C)NC2=O)Nc2n[nH]c(Cl)c21` [Compound 951605], the pIC50 in experiment [1] (setting [3]) was less than 5.30; in experiment [2] (setting [4]) it was 5.30 to 6.00.
For the molecule `CC1(C)CC(=O)C2=C(C1)Nc1n[nH]cc1[C@]21CCN(S(=O)(=O)c2ccccc2)C1` [Compound 951787], the pIC50 was not below 7.00 in experiment [1] (setting [7]), 6.00 to 7.00 in experiment [1] (setting [13]), not below 7.00 in experiment [2] (setting [8]) and not below 7.00 in experiment [2] (setting [14]).
Turning to `CC[C@@]1(c2cccc(C(F)(F)F)c2)C2=C(CC(C)(C)C2=O)Nc2n[nH]cc21` [Compound 950272], the results for the pIC50 in experiment [1] (setting [3]) and in experiment [2] (setting [4]) were 6.00 to 7.00 and not below 7.00, respectively.
For `CCC1(c2cccc(-c3ccnn3C)c2)C2=C(CC(C)(C)CC2=O)Nc2n[nH]c(C(F)(F)F)c21` (stereo not shown) [Compound 947365], the values for the pIC50 in experiment [1] (setting [9]) and in experiment [2] (setting [11]) were 5.30 to 6.00 and 6.00 to 7.00, respectively.
Turning to `COc1ccc(S(=O)(=O)N2CCC3(CC2)C2=C(CC(C)(C)CC2=O)Nc2n[nH]cc23)cn1` [Compound 945666], the pIC50 in experiment [1] (setting [9]) and in experiment [2] (setting [11]) was not below 7.00 throughout.
Regarding `CC1(C)CC(=O)C2=C(C1)Nc1n[nH]cc1C21CCN(S(=O)(=O)c2ccc(F)cc2)CC1` [Compound 893311], the pIC50 in experiment [1] (setting [9]) was not below 7.00; in experiment [1] (setting [13]), 5.30 to 6.00; in experiment [2] (setting [11]), not below 7.00; in experiment [2] (setting [14]), 6.00 to 7.00.
As for `CC1(C)CC(=O)C2=C(C1)Nc1n[nH]cc1[C@@]21CCN(S(=O)(=O)c2ccccc2F)C1` [Compound 945719], the pIC50 in experiment [1] (setting [9]) and in experiment [2] (setting [11]) was not below 7.00 each time.
As to `CCC1(c2cccc(COC)c2)C2=C(CC(C)(C)CC2=O)Nc2n[nH]cc21` (stereo not shown) [Compound 810362], the pIC50 is less than 5.30 in experiment [1] (setting [5]) and less than 5.78 in experiment [2] (setting [6]).
Take `CC1(C)CC(=O)C2=C(C1)Nc1n[nH]cc1[C@]21C[C@H](OCc2ccccc2)C1` [Compound 909210]: the pIC50 in experiment [1] (setting [9]) and in experiment [2] (setting [11]) was 6.00 to 7.00 each time.
As for `CCC1(c2cccc(-c3cnn(CCN4CCCC4)c3)c2)C2=C(CC(C)(C)NC2=O)Nc2n[nH]cc21` (stereo not shown) [Compound 952022], the figures for the pIC50 in experiment [1] (setting [3]) and in experiment [2] (setting [4]) were 5.30 to 6.00 and 6.00 to 7.00, respectively.
Consider `CC[C@]1(c2cccc(N3CCCC[C@H]3C)c2)C2=C(CC(C)(C)CC2=O)Nc2n[nH]cc21` [Compound 917210], for which the pIC50 in experiment [1] (setting [3]) and in experiment [2] (setting [4]) was less than 5.30 throughout.
On to `CC[C@]1(c2cccc(-c3ccnc4c(C)cccc34)c2)C2=C(CC(C)(C)NC2=O)Nc2n[nH]cc21` [Compound 952909], for which the results for the pIC50 in experiment [1] (setting [3]) and in experiment [2] (setting [4]) were 6.00 to 7.00 and not below 7.00, respectively.
For `CCC1(c2cccc(-c3cc(C)ncc3F)c2)C2=C(CC(C)(C)CC2=O)Nc2n[nH]cc21` (stereo not shown) [Compound 927346], the pIC50 in experiment [1] (setting [3]) is not below 7.00; in experiment [1] (setting [10]), 5.30 to 6.00; in experiment [2] (setting [4]), not below 7.00; in experiment [2] (setting [12]), not below 7.00.
With `CC1(C)CC(=O)C2=C(C1)Nc1n[nH]cc1C21CC(c2ccccc2)C1` (stereo not shown) [Compound 917082], the pIC50 in experiment [1] (setting [9]) and in experiment [2] (setting [11]) was not below 7.00 each time.
`Cc1cccc(C(=O)N2CC3(C2)CC2(CO3)C3=C(CC(C)(C)CC3=O)Nc3n[nH]cc32)c1C` (stereo not shown) [Compound 947284]: the pIC50 in experiment [1] (setting [7]) is 6.00 to 7.00; in experiment [2] (setting [8]) it was not below 7.00.
Consider `CC(C)S(=O)(=O)N1CCC2(CC1)C1=C(Nc3n[nH]cc32)[C@H](F)C(C)(C)CC1=O` [Compound 951701], for which the pIC50 in experiment [1] (setting [7]) was not below 7.00; in experiment [1] (setting [13]) it was 5.30 to 6.00; in experiment [2] (setting [8]), not below 7.00; in experiment [2] (setting [14]) it was 6.00 to 7.00.
